Data taken from PMC6269118, “Populene D Analogues: Design, Concise Synthesis and Antiproliferative Activity” (Molecules, 2012).
In brackets after ≈: the same amount, converted by molar mass. Read-outs that look alike come from different tables or passages of the source.

Key:
786-0 (renal) cells = assay: Antiproliferative sulforhodamine B assay, 786-0; assay type: cell-based; details: Homo sapiens, 786-0 kidney, 48 h treatment, SRB; for IC100: read-out: Total growth inhibition (TGI)
Protocol: (§1) The in vitro antiproliferative activity of populene analogues 2a–e and 3a–e was investigated toward nine human tumor cell lines [CNS (U251), breast (MCF-7), ovarian (NCI-ADR/RES, OVCAR-03), renal (786-0), non-small cell lung (NCI-H460), prostate (PC-3), colon (HT-29) and leukemia (k-562)] and one human normal cell line (HaCat, human keratinocytes). The populene D analogues were tested at concentrations between 0.25 and 250 µg/mL and doxorubicin (DOX 0.025–25 µg/mL) was used as positive control. […] To analyze the GI50 parameter, mean log GI50 was calculated by conversion of the GI50 values for each tumor cell line tested (not including the normal cell line HaCat) against a test compound and then these values were averaged.
(§2) Stock cultures were grown in 5 mL of RPMI 1640 (GIBCO BRL, Life Technologies) supplemented with 5% of fetal bovine serum. Penicillin:streptomycin (1,000 μg mL^−1:1,000 UI mL^‑1, 1 mL L^−1) was added to the experimental cultures.
(§3) Afterwards cells were fixed with 50% trichloroacetic acid and cell proliferation determined by spectrophotometric quantification (540 nm) of cellular protein content using sulforhodamine B assay[20]. Doxorubicin (0.025–25 mg/mL) was used as positive control. Three measurements were obtained at the beginning of incubation (time zero, T0) and 48 h post-incubation for compound-free (C) and tested (T) cells. Cell proliferation was determined according to the equation 100 × [(T − T0)/C − T0], for T0 < T ≤ C, and 100 × [(T − T0)/T0], for T ≤ T0 and a concentration-response curve for each cell line was plotted and, from these curves, GI50 (concentration causing 50% growth inhibition) and TGI (concentration that promotes total growth inhibition) were determined by means of non-linear regression analysis using software ORIGIN 8.0 (OriginLab Corporation) [20, 21] The average activity (mean of log GI50) of each compound tested was also determined using MS Excel software.

HT-29 (colon) cells = assay: Antiproliferative sulforhodamine B assay, HT-29; assay type: cell-based; details: Homo sapiens, 48 h treatment, SRB; for IC100: read-out: Total growth inhibition (TGI)
Protocol: (§4) The populene D analogues were tested at concentrations between 0.25 and 250 µg/mL and doxorubicin (DOX 0.025–25 µg/mL) was used as positive control. […] To analyze the GI50 parameter, mean log GI50 was calculated by conversion of the GI50 values for each tumor cell line tested (not including the normal cell line HaCat) against a test compound and then these values were averaged.
as §2, §3

[1] = Antiproliferative sulforhodamine B assay, HaCat normal cell line; assay type: cell-based, human; details: human; HaCat normal immortalized keratinocytes, 48 h treatment, SRB
Protocol: as §1, §2, §3

[2] = tested on: HaCat (immortalized human keratinocytes); assay: as above; assay type: cell-based; details: 48 h treatment, SRB
Protocol: as §1, §2, §3

MCF-7 (breast) cells = assay: Antiproliferative sulforhodamine B assay, MCF-7; assay type: cell-based; details: Homo sapiens, MCF7, MCF-7 mammary, 48 h treatment, SRB; for IC100: read-out: Total growth inhibition (TGI)
Protocol: as §1, §2, §3

OVCAR-3 (ovarian) cells = assay: Antiproliferative sulforhodamine B assay, OVCAR-3; assay type: cell-based; details: Homo sapiens, OVCAR-3 ovary, 48 h treatment, SRB; for IC100: read-out: Total growth inhibition (TGI)
Protocol: as §4, §2, §3

[3] = tested on: NCI-ADR/RES (ovarian expressing phenotype multiple drugs resistance) cells; assay: Antiproliferative sulforhodamine B assay, NCI-ADR/RES; assay type: cell-based; details: Homo sapiens, NCI-ADR/RES drug resistant ovary, 48 h treatment, SRB; for IC100: read-out: Total growth inhibition (TGI)
Protocol: as §1, §2, §3

U251 (glioma) cells = assay: Antiproliferative sulforhodamine B assay, U251; assay type: cell-based; details: Homo sapiens, U-251, 48 h treatment, SRB; for IC100: read-out: Total growth inhibition (TGI)
Protocol: as §1, §2, §3

K-562 (leukemia) cells = assay: Antiproliferative sulforhodamine B assay, K-562; assay type: cell-based; details: Homo sapiens, K562, 48 h treatment, SRB; for IC100: read-out: Total growth inhibition (TGI)
Protocol: as §1
(§5) Cells in 96-well plates (100 μL cells/well) were exposed to various concentrations of compounds 2a–d and 3a–d diluted in DMSO (0.25, 2.5, 25 and 250 μg/mL) at 37 °C, 5% of CO2 for 48 h. […] Afterwards cells were fixed with 50% trichloroacetic acid and cell proliferation determined by spectrophotometric quantification (540 nm) of cellular protein content using sulforhodamine B assay[20]. Doxorubicin (0.025–25 mg/mL) was used as positive control. Three measurements were obtained at the beginning of incubation (time zero, T0) and 48 h post-incubation for compound-free (C) and tested (T) cells. Cell proliferation was determined according to the equation 100 × [(T − T0)/C − T0], for T0 < T ≤ C, and 100 × [(T − T0)/T0], for T ≤ T0 and a concentration-response curve for each cell line was plotted and, from these curves, GI50 (concentration causing 50% growth inhibition) and TGI (concentration that promotes total growth inhibition) were determined by means of non-linear regression analysis using software ORIGIN 8.0 (OriginLab Corporation) [20, 21] The average activity (mean of log GI50) of each compound tested was also determined using MS Excel software.

PC-3 (prostate) cells = assay: Antiproliferative sulforhodamine B assay, PC-3; assay type: cell-based; details: Homo sapiens, Prostate cell, 48 h treatment, SRB; for IC100: read-out: Total growth inhibition (TGI)
Protocol: as §4, §2, §3

[4] = tested on: nine human tumor cell lines; assay: Average antiproliferative activity over the tumor cell line panel (NCI criteria); assay type: cell-based; details: for GI50: Homo sapiens, 48 h; for Cytostatic activity classified in words by NCI criteria on mean logGI50: weak 1.1-1.5, moderate 0-1.1, potent <0, inactive >1.5
Protocol: as §1, §5

[5] = tested on: NCI-H460 (lung, non-small cells) cells; assay: Antiproliferative sulforhodamine B assay, NCI-H460; details: for GI50: Homo sapiens, NCI-H460, 48 h; for Total growth inhibition (TGI): NCI-H460 lung, 48 h treatment, SRB
Protocol: as §4, §2, §3

[6] = average of logGI50 (GI50 in μg/mL) over tumor cell lines tested, not including HaCat, read-out: Mean logGI50 (converted)
[7] = class symbol by NCI's criteria on mean logGI50, read-out: Mean logGI50 activity class (NCI's criteria)

| Compound | GI50 (786-0 (renal) cells) | IC100 (786-0 (renal) cells) | GI50 (HT-29 (colon) cells) | IC100 (HT-29 (colon) cells) | GI50 at 48 h [1] | Total growth inhibition (TGI) [2] | melting point | GI50 (MCF-7 (breast) cells) | IC100 (MCF-7 (breast) cells) | GI50 (OVCAR-3 (ovarian) cells) | IC100 (OVCAR-3 (ovarian) cells) | GI50 [3] | IC100 [3] | GI50 (U251 (glioma) cells) | IC100 (U251 (glioma) cells) | GI50 (K-562 (leukemia) cells) | IC100 (K-562 (leukemia) cells) | GI50 (PC-3 (prostate) cells) | GI50 [4, 6] | GI50 [4, 7] | further results |
| --- | --- | --- | --- | --- | --- | --- | --- | --- | --- | --- | --- | --- | --- | --- | --- | --- | --- | --- | --- | --- | --- |
| COc1cccc2c1CCC1=C2C(C)COC1(C)C (centres unmarked) [2a, 4,5,6-Tetrahydro-7-methoxy-1,4,4-trimethyl-1H-benzo[f]isochromene] | 25 µg/mL (≈ 96.8 µM) | 50.6 µg/mL | 25 µg/mL (≈ 96.8 µM) | 39.1 µg/mL | 25 µg/mL (≈ 96.8 µM) | 66.9 µg/mL | 65 to 67 °C | 25 µg/mL (≈ 96.8 µM) | 51.3 µg/mL | 25 µg/mL (≈ 96.8 µM) | 52.3 µg/mL | 25 µg/mL (≈ 96.8 µM) | 83.5 µg/mL | 25 µg/mL (≈ 96.8 µM) | 52 µg/mL | 3.1 µg/mL (≈ 12 µM) | > 250 µg/mL | 25 µg/mL (≈ 96.8 µM) | 14.8 µg/mL (≈ 57.2 µM) | 12.6 to 31.6 µg/mL (≈ 48.7 to 122 µM) | IC100 (PC-3 (prostate) cells): 64.6 µg/mL |
| COc1ccc2c(c1)CCC1=C2C(C)COC1(C)C (centres unmarked) [2b, 2,4,5,6-Tetrahydro-8-methoxy-1,4,4-trimethyl-1H-benzo[f]isochromene] | 25.5 µg/mL (≈ 98.7 µM) | 44 µg/mL | 6.6 µg/mL (≈ 25.5 µM) | 33 µg/mL | 26.1 µg/mL (≈ 101 µM) | 54.4 µg/mL | 89.5 to 91.3 °C | 23.2 µg/mL (≈ 89.8 µM) | 46.9 µg/mL | 24.5 µg/mL (≈ 94.8 µM) | 56.2 µg/mL | 26.8 µg/mL (≈ 104 µM) | 104 µg/mL | 24.6 µg/mL (≈ 95.2 µM) | 53.5 µg/mL | 9.6 µg/mL (≈ 37.2 µM) | > 250 µg/mL | 27 µg/mL (≈ 105 µM) | 15.1 µg/mL (≈ 58.6 µM) | 12.6 to 31.6 µg/mL (≈ 48.7 to 122 µM) | IC100 (PC-3 (prostate) cells): 41.4 µg/mL |
| COc1ccc2c(c1)C1=C(CC2)C(C)(C)OCC1C (centres unmarked) [2c, 2,4,5,6-Tetrahydro-9-methoxy-1,4,4-trimethyl-1H-benzo[f]isochromene] | 25 µg/mL (≈ 96.8 µM) | 36.1 µg/mL | 25 µg/mL (≈ 96.8 µM) | 41.8 µg/mL | 25 µg/mL (≈ 96.8 µM) | 32.0 µg/mL | – | 25 µg/mL (≈ 96.8 µM) | 45.3 µg/mL | 25 µg/mL (≈ 96.8 µM) | 67 µg/mL | 25 µg/mL (≈ 96.8 µM) | 66.3 µg/mL | 25 µg/mL (≈ 96.8 µM) | 40 µg/mL | 25 µg/mL (≈ 96.8 µM) | 128 µg/mL | 25 µg/mL (≈ 96.8 µM) | 16.2 µg/mL (≈ 62.8 µM) | 12.6 to 31.6 µg/mL (≈ 48.7 to 122 µM) | IC100 (PC-3 (prostate) cells): 69.2 µg/mL |
| COc1cc2c(cc1OC)C1=C(CC2)C(C)(C)OCC1C (centres unmarked) [2d, 2,4,5,6-Tetrahydro-8,9-dimethoxy-1,4,4-trimethyl-1H-benzo[f]isochromene] | 45.8 µg/mL (≈ 159 µM) | > 250 µg/mL | 23.1 µg/mL (≈ 80.1 µM) | > 250 µg/mL | > 250 µg/mL | >250 µg/mL | 115 to 117 °C | 38.8 µg/mL (≈ 135 µM) | > 250 µg/mL | 193 µg/mL (≈ 671 µM) | > 250 µg/mL | 101 µg/mL (≈ 349 µM) | > 250 µg/mL | > 250 µg/mL | > 250 µg/mL | 84.6 µg/mL (≈ 293 µM) | > 250 µg/mL | 71.4 µg/mL (≈ 248 µM) | > 50.1 µg/mL | > 31.6 µg/mL | IC100 (PC-3 (prostate) cells): > 250 µg/mL; Cytostatic activity classified in words by NCI criteria on mean logGI50 [4]: inactive |
| CC1COC(C)(C)C2=C1c1cccc(O)c1CC2 (centres unmarked) [3a, 1,4,4-Trimethyl-1,4,5,6-tetrahydro-2H-benzo[f]isochromen-7-ol] | 37.3 µg/mL (≈ 153 µM) | > 250 µg/mL | > 250 µg/mL | > 250 µg/mL | > 250 µg/mL | >250 µg/mL | 139.2 to 140.3 °C | > 250 µg/mL | > 250 µg/mL | > 250 µg/mL | > 250 µg/mL | > 250 µg/mL | > 250 µg/mL | > 250 µg/mL | > 250 µg/mL | > 250 µg/mL | > 250 µg/mL | > 250 µg/mL | > 209 µg/mL | > 31.6 µg/mL | GI50 [5]: > 250 µg/mL; Total growth inhibition (TGI) [5]: >250 µg/mL; IC100 (PC-3 (prostate) cells): > 250 µg/mL; Cytostatic activity classified in words by NCI criteria on mean logGI50 [4]: inactive |
| COc1cc2c(cc1O)C1=C(CC2)C(C)(C)OCC1C (centres unmarked) [3d, 8-Methoxy-1,4,4-trimethyl-1,4,5,6-tetrahydro-2H-benzo[f]isochromen-9-ol] | 24.1 µg/mL (≈ 87.8 µM) | 47.8 µg/mL | 6 µg/mL (≈ 21.9 µM) | 32.3 µg/mL | 4.2 µg/mL (≈ 15.3 µM) | 160.7 µg/mL | 141 to 143 °C | 24.6 µg/mL (≈ 89.7 µM) | 58.2 µg/mL | 24.3 µg/mL (≈ 88.6 µM) | 69.9 µg/mL | 5.2 µg/mL (≈ 19 µM) | 37.6 µg/mL | 23.1 µg/mL (≈ 84.2 µM) | 45.9 µg/mL | – | – | – | 14.5 µg/mL (≈ 52.7 µM) | 12.6 to 31.6 µg/mL (≈ 45.9 to 115 µM) | GI50 [5]: 45.1 µg/mL (≈ 164 µM); Total growth inhibition (TGI) [5]: >250 µg/mL; Cytostatic activity classified in words by NCI criteria on mean logGI50 [4]: weak |
| CC1COC(C)(C)C2=C1c1cc(O)c(O)cc1CC2 (centres unmarked) [3e, 1,4,4-Trimethyl-1,4,5,6-tetrahydro-2H-benzo[f]isochromene-8,9-diol] | 5.6 µg/mL (≈ 21.5 µM) | 19.4 µg/mL | 19.5 µg/mL (≈ 74.9 µM) | 39 µg/mL | 4.2 µg/mL (≈ 16.1 µM) | >250 µg/mL | 122 to 123 °C | 5.5 µg/mL (≈ 21.1 µM) | 41.6 µg/mL | 3.9 µg/mL (≈ 15 µM) | 34.4 µg/mL | 5.7 µg/mL (≈ 21.9 µM) | > 250 µg/mL | 19.6 µg/mL (≈ 75.3 µM) | 28.4 µg/mL | – | – | – | 8.13 µg/mL (≈ 31.2 µM) | 1 to 12.6 µg/mL (≈ 3.84 to 48.4 µM) | GI50 [5]: 17.4 µg/mL (≈ 66.8 µM); Total growth inhibition (TGI) [5]: >250 µg/mL; Cytostatic activity classified in words by NCI criteria on mean logGI50 [4]: moderate |
| COc1cccc2c1C(=O)c1c(O)c3c(c(O)c1C2=O)C[C@@](O)(C(=O)CO)C[C@@H]3O[C@H]1C[C@H](N)[C@H](O)[C@H](C)O1 [Doxorubicine, doxorubicin, reference compound] | 0.04 µg/mL (≈ 0.0736 µM) | 0.62 µg/mL | 0.22 µg/mL (≈ 0.405 µM) | 25 µg/mL | 0.23 µg/mL (≈ 0.423 µM) | 0.67 µg/mL | – | 0.21 µg/mL (≈ 0.386 µM) | 8.8 µg/mL | 0.26 µg/mL (≈ 0.478 µM) | 3.9 µg/mL | 1.3 µg/mL (≈ 2.39 µM) | 25 µg/mL | 0.062 µg/mL (≈ 0.114 µM) | 1.1 µg/mL | 0.4 µg/mL (≈ 0.736 µM) | 25 µg/mL | 0.27 µg/mL (≈ 0.497 µM) | 0.166 µg/mL (≈ 0.305 µM) | < 1 µg/mL | GI50 [5]: < 0.025 µg/mL; Total growth inhibition (TGI) [5]: 0.025 µg/mL; IC100 (PC-3 (prostate) cells): 4.4 µg/mL |
